Assays:
[1] = Terminal half life in rhesus monkey at 0.5 mg/kg, iv; assay type: ADME, organism-based, Macaca mulatta; details: in vivo, read-out: beta t1/2 (converted)
[2] = MRT in […] rhesus monkey at 0.5 mg/kg, iv; assay type: ADME, organism-based, Macaca mulatta; details: in vivo
[3] = Dose normalized AUC in CD1 mouse at 1 mg/kg, iv and 2 mg/kg, po; assay type: ADME, organism-based; details: in vivo
[4] = Drug recovery in bile duct cannulated single po dosed WH rat assessed as recovered total urine radioactivity; assay type: ADME, organism-based; details: in vivo
[5] = AUC (0 to infinitive) in rhesus monkey at 2 mg/kg, po; assay type: ADME, organism-based, Macaca mulatta; design: route oral, time infinity, dose 2 mg/kg; details: in vivo
[6] = Tmax in Beagle dog at 2 mg/kg, po; assay type: ADME, organism-based, Canis lupus familiaris; details: in vivo
[7] = Terminal half life in Beagle dog at 0.5 mg/kg, iv; assay type: ADME, organism-based, Canis lupus familiaris; details: in vivo, read-out: beta t1/2 (converted)
[8] = Normalized AUC (0 to 72 hrs) in fasted dog at 1 mg/kg, po in Imwitor/Tween; assay type: ADME, organism-based, Canis lupus familiaris; details: in vivo
[9] = Drug recovery in bile duct cannulated single iv dosed WH rat assessed as recovered parent compound in plasma measure at 24 hrs relative to total recovery; assay type: ADME, organism-based; details: in vivo
[10] = Oral bioavailability in CD1 mouse at 2 mg/kg; assay type: ADME, organism-based; details: in vivo
[11] = MRT in Beagle dog at 0.5 mg/kg, iv; assay type: ADME, organism-based, Canis lupus familiaris; details: in vivo
[12] = Half life in lean NFR-transgenic mouse adipose tissue at 10 mg/kg, po qd treated for 40 days; assay type: ADME, organism-based; details: time 40 day
[13] = MRT in CD1 mouse at 1 mg/kg, iv and 2 mg/kg, po; assay type: ADME, organism-based; details: in vivo
[14] = Volume of distribution at steady state in CD1 mouse at 1 mg/kg, iv and 2 mg/kg, po; assay type: ADME, organism-based; details: in vivo, read-out: Vdss
[15] = Drug recovery in bile duct cannulated single po dosed rhesus monkey assessed as recovered parent compound in bile relative to total recovery; assay type: ADME, organism-based, Macaca mulatta; details: in vivo
[16] = Oral bioavailability in rhesus monkey at 2 mg/kg; assay type: ADME, organism-based, Macaca mulatta; details: in vivo
[17] = AUC (0 to infinitive) in CD1 mouse at 2 mg/kg, po; assay type: ADME, organism-based; design: route oral, time infinity, dose 2 mg/kg; details: in vivo
[18] = Half life in lean wild type mouse plasma at 10 mg/kg, po qd treated for 40 days; assay type: ADME, organism-based; details: time 40 day
[19] = Terminal half life in WH rat at 1 mg/kg, iv; assay type: ADME, organism-based; details: in vivo, read-out: beta t1/2 (converted)
[20] = Drug recovery in bile duct cannulated single po dosed rhesus monkey assessed as recovered glucuronide conjugate in bile relative to total recovery; assay type: ADME, organism-based, Macaca mulatta; details: in vivo
[21] = Tmax in CD1 mouse at 2 mg/kg, po; assay type: ADME, organism-based; details: in vivo
[22] = Half life in DIO wild type mouse adipose tissue at 10 mg/kg, po qd treated for 40 days; assay type: ADME, organism-based; details: time 40 day
[23] = Drug recovery in bile duct cannulated single po dosed WH rat assessed as recovered parent compound in feces relative to total recovery; assay type: ADME, organism-based; details: in vivo

COc1ncc(-c2ccc(C(=O)O)cc2C)cc1-c1ccc(C(F)(F)F)cc1[C@@H]1CC[C@H]2[C@@H](c3cc(C(F)(F)F)cc(C(F)(F)F)c3)OC(=O)N12
half-life [1]: 50 h | MRT [2]: 60 h | AUC/dose [3]: 9.2 µM·h | Drug recovery [4]: 0% | AUC(0-inf) [5]: 11 µM·h | Tmax [6]: 1.7 h | half-life [7]: 15 h | AUC/dose [8]: 24 µM·kg·h/mg | Drug recovery [9]: > 99% | bioavailability [10]: 43% | MRT [11]: 18 h | half-life [12]: 36 h | MRT [13]: 6 h | Vd [14]: 0.95 L/kg | Drug recovery [15]: < 1% | bioavailability [16]: 8.4% | AUC(0-inf) [17]: 7.9 µM·h | half-life [18]: 0.8 h | half-life [19]: 8.1 h | Drug recovery [20]: > 96% | Tmax [21]: 2.7 h | half-life [22]: 86.4 h | Drug recovery [23]: > 98%
